Laboratory results reported in patent US20210322339A1, “COMBINATION THERAPY OF COENZYME Q10 AND RADIATION FOR TREATMENT OF GLIOMA” (Berg LLC, priority 2019, published 2021).

Key:
[1] = tested on: NHA (normal human astrocytes); assay: Human co-culture U251/NHA, flow cytometry of superoxide in non-cancerous cells; type: cell-based; details: 0, 230 or 460 μM
From the text: (§1) (A) Strategy of human co-culture experiments. In the human cell model, NHA (non-label) and U251 (GFP-labelled) cells are co-cultured in designated cell density. […] (C) Flow cytometric analysis (scatter plot) of GFP and superoxide for U251/NHA cocultures. Cell populations are characterized based by GFP intensity (GFP-negative, GFP-low, and GFP-high). […] (D) Quantification of cell percentages from (C) illustrating the increased number of GFP-low cells with increased dose. (E) Flow cytometric analysis of superoxide and DAPI for NHA-U251/NHA co-cultures treated with 0, 230, or 460 μM Coenzyme Q10.
(§2) We assessed the effects of Coenzyme Q10 on mitochondrial superoxide production in in vitro cocultures of glioma and non-cancerous cells, i.e. rodent C6 glioma, rodent NIH3T3 non-cancerous fibroblast cells, human U251 glioma, and primary human non-cancerous astrocytes.
(§3) In the human cell model, NHA (non-label) and U251 (GFP-labelled) cells were co-cultured at a designated cell density. Phase and fluorescent images of U251/NHA Co-cultures of U251/NHA cells were treated with 0 or 460 μM Coenzyme Q10 and detected by phase and fluorescent imaging. […] See FIG. 2 B. Cells were also analyzed by flow cytometric analysis (scatter plot) of GFP and superoxide for U251/NHA cocultures. […] Quantification of cell percentages illustrated the increased number of GFP-low cells with increased dose.

[2] = tested on: U251 glioma cells; assay: Human co-culture U251/NHA, imaging and flow cytometry of GFP, superoxide and DAPI; type: cell-based
From the text: as §1, §2
as §3, with “cocultures. Cell populations were characterized based by GFP intensity (GFP-negative, GFP-low, and GFP-high).” for “cocultures.”

[3] = tested on: C6 glioma and NIH3T3 cells; assay: Rodent co-culture of C6-GFP glioma and NIH3T3 cells, cell number and Mitosox superoxide by flow cytometry; type: cell-based
Method: FIGS. 2A-2F show differential induction of mitochondrial superoxide by Coenzyme Q10 in non-cancer vs. neoplastic cells. (A) Strategy of rodent co-culture experiments using glioma and non-tumor cells. The rodent cell co-culture consisted of fibroblastic NIH3T3 and glioma C6-GFP cells. (B) NIH3T3 and C6 cells were initially seeded in 1:1 ratio. After 72 h or 144 h incubation with Coenzyme Q10 (0 μM, […], 115 μM, 230 μM, […] or 460 μM), the number of C6 or NIH3T3 cells in co-culture is generated by flow-cytometry. (C) Images were taken at 72 hrs post-dosing (0 μM, 230 μM or 460 μM) using a Leica CTR5000. […] Percentage of cells harboring positive or negative level of superoxide from C6 (GFP+) or NIH3T3 (GFP−) population are recorded by flow cytometry (D) and presented as table of summary (E). […]
as §2
For the rodent cells, NIH3T3 and C6 cells were initially seeded in a 1:1 ratio. […] Superoxide level was detected by Mitosox staining. The percentage of cells harboring positive or negative levels of superoxide from C6 (GFP+) or NIH3T3 (GFP−) populations were determined by flow cytometry.

[4] = tested on: C6 glioma cells; assay: Orthotopic C6 glioma rat model, survival and MRI; type: in vivo, Wistar rats; details: long-term survivor, D27, D34, D102
Method: 10^6 C6 glioma cells were implanted into the right striatum of Wistar rats. Four days after implantation, animals started to receive saline (n=32) or 50 mg/kg of Coenzyme Q10 (n=21), twice a day, i.p. for 45 days. Surviving animals remained in the study until Day 102 (A) Kaplan-Meier survival curve of rats during 45 days of treatment. Over 25% of rats treated with Coenzyme Q10 survived 45 days, considered long-term survival in this model (p<0.01, log rank test). (B) Serial MRI images of a long-term survivor (D27, D34, D102). […] Far right panel is a coronal section of the long-term survivor.
10^6 C6 glioma cells were implanted into the right striatum of Wistar rats. Four days after implantation, animals started to receive saline (n=32) or 50 mg/kg of Coenzyme Q10 (n=21), twice a day, i.p. for 45 days. Surviving animals remained in the study until Day 102.

[5] = tested on: high-grade glioma; details: one patient, after 6 weeks in the study
Method: The patients in this study were administered a CoQ10-lipid conjugate in which oxidized CoQ10 was incorporated into a mixture of mitochondria compatible lipids, enabling delivery of supraphysiological concentrations of CoQ10 to the mitochondria.
This study was a phase I trial of Coenzyme Q10 to assess for safety and tolerability of Coenzyme Q10 with vitamin K in patients with HGGs that were progressive after a bevacizumab (BEV) containing regimen. […] Therefore, this study used 10 mg vitamin K prophylactically.
Design: Modified toxicity probability interval design (mTPI) enrolling patients sequentially and monitoring through a 28-day DLT period. 1 dose escalation and 2 dose de-escalations allowed.
Key Inclusion Criteria: HGG (GB, Gliosarcoma, AA, AO) sp radiation with TMZ in recurrence after treatment with BEV. Evidence of leptomeningeal spread was allowed. >18 w KPS>60. Normal coagulation labs.
Key Exclusion Criteria: History of spontaneous or tumor related intracerebral hemorrhage. Uncontrolled coagulopathies or use of anti-coagulants.

[6] = tested on: C6 cells; assay: Implanted luciferase-labeled C6 glioma rat model with radiotherapy, survival; type: in vivo, Sprague Dawley rats
Method: Methodology: 1×10^6 luciferase labeled C6 cells were implanted into the right striatum of Sprague Dawley rats. 4 days post-implantation, 50 rats were randomized into one of four groups:
(i) Saline injection ip bid; (12 rats)
(ii) Coenzyme Q10 50 mg/kg ip bid to continue up to 35 days; (12 rats)
(iii) 12 Gy radiotherapy (RT) to be administered on Day 8 post-implant with saline injection (12 rats); and
(iv) Coenzyme Q10+RT (14 rats).
Tumor-bearing rats were monitored until death or Day 50.

[7] = tested on: recurrent high-grade gliomas; details: patients with recurrent high-grade gliomas; cited from earlier work

Compound	superoxide values in GFP-negative (NHA) cells [1]	DAPI levels ([2]; 0, 230 or 460 μM)	superoxide values in GFP-low and GFP-high cells ([2]; 0, 230 or 460 μM)	glioma cell levels by phase and fluorescent imaging ([2]; 460 μM, U251/NHA co-culture)	superoxide level of U251 glioma cells compared to human astrocytes upon treatment ([2]; basal difference 1.5-fold)	percentage of GFP-low relative to GFP-high cells ([2]; with increasing dose, flow cytometry)	dosage of peak effect of differences in superoxide levels and cell growth ([3]; C6/NIH3T3 co-culture)	induction of mitochondrial superoxide versus non-neoplastic cells ([3]; C6 and U251 cells exposed to Coenzyme Q10)	tumor size over time on serial MRI after treatment was withdrawn [4]	glucose uptake by FDG-PET in the area of prior surgery [5]	median survival ([6]; Coenzyme Q10 50 mg/kg ip bid up to 35 days, 12 Gy RT on Day 8, monitored to Day 50, p<0.001)	Long Term Survivors (%) ([6]; survived for 45 days)	response rates [7]
COC1=C(OC)C(=O)C(C/C=C(\C)CC/C=C(\C)CC/C=C(\C)CC/C=C(\C)CC/C=C(\C)CC/C=C(\C)CC/C=C(\C)CC/C=C(\C)CC/C=C(\C)CCC=C(C)C)=C(C)C1=O [Coenzyme Q10]	insignificant changes	only significantly elevated in GFP-low cells	increase in superoxide values	decreased glioma cell levels with a relative sparing of NHA cells	over 4 fold	increased percentage of GFP-low relative to GFP-high cells	230	significantly more induction of mitochondrial superoxide than non-neoplastic cells	continued shrinkage of the tumor over time	decreased glucose uptake	19 days	5/12 (42%)	
Bevacizumab: a monoclonal antibody against vascular endothelial growth factor (VEGF)													32-62%
